Data on one compound can be found in patent publication US11690824B2, “Antibacterial compounds” (THE GENERAL HOSPITAL CORPORATION, priority 2018, dated 2023).

The test system of one test is S. aureus Newman. The experiment in a line: MIC assay. It is filed as cell-based. The note with it: Staphylococcus aureus; S. aureus Newman; read-out: Minimum inhibitory concentration. The source says: (§1) Bacterial strains, growth conditions, and persister isolation. Methicillin-resistant S. aureus strains, MW2 BAA-1707, ATCC 33591, and JE2, methicillin-susceptible S. aureus strains, NCTC 8325, Newman, and ATCC 29213, vancomycin-resistant S. aureus strain, VRS1, Enterococcus faecium E007, vancomycin-resistant E. faecium strains, C68,^7 WB312, and WC196, Klebsiella pneumoniae WGLW2 (BEI Resources, Manassas, Va., USA), Acinetobacter baumannii ATCC 17978, Pseudomonas aeruginosa PA14, and Enterobacter aerogenes ATCC 13048 were used to test antimicrobial activity (Table 1). S. aureus strains were grown in tryptic soy broth (TSB) (BD, Franklin Lakes, N.J., USA), and E. faecium was grown in brain-heart infusion (BHI) broth (BD, Franklin Lakes, N.J., USA) at 37° C. K. pneumoniae, A. baumannii, P. aeruginosa, and E. aerogenes were grown in Luria Bertani (LB) broth (BD, Franklin Lakes, N.J., USA) at 37° C.
(§2) Minimal inhibitory concentration (MIC) assay. The MICS of antibiotics were determined by the standard micro-dilution method recommended by the Clinical and Laboratory Standards Institute. MIC assays were conducted in biological triplicate.

For another test, the system named is S. aureus ATCC 33591. The test is described as follows: MIC assay. It is filed as cell-based. The note with it: Staphylococcus aureus, ATCC33591; S. aureus ATCC 33591; read-out: Minimum inhibitory concentration.
Excerpt: as §1, §2

Another test deals with S. aureus VRS1. The experiment in a line: MIC assay. Conditions: Staphylococcus aureus; S. aureus VRS1; read-out: Minimum inhibitory concentration. It is filed as cell-based.
Excerpt: as §1, §2

The subject of a further test is S. aureus NCTC 8325. The test is described as follows: MIC assay. Format: cell-based. The note with it: Staphylococcus aureus, NCTC8325; S. aureus NCTC 8325; read-out: Minimum inhibitory concentration.
Excerpt: as §1, §2

In test [1] the test system is MRSA MW2. The test is described as follows: Transmission electron microscopy. The note with it: 4× MIC for 2 h.
The subject of test [2] is MRSA MW2. The test is described as follows: Deep-seated mouse thigh infection model. The note with it: 5 days. Format: in vivo. On the procedure:
Deep-seated mouse thigh infection model. In vivo efficacy of nTZDpa alone or in combination with gentamicin against MRSA persisters was evaluated by a previously described neutropenic mouse thigh infection model with modifications. Six-week-old female CD-I mice (20-25 g, Charles River Laboratories, Wilmington, Mass., USA) were obtained from Charles River Laboratories (Wilmington, Mass., USA). The CD-I mice were rendered neutropenic by administering 150 mg/kg and 100 mg/kg of cyclophosphamide intraperitoneally (i.p.) at 4 days and 1 day before infection, respectively. On the day of infection, overnight culture of MRSA MVV2 was washed 3-time with sterile saline and diluted to 10^7 CFU/ml in the saline. 50 μl of the diluted culture (5×10^5 CFU per mouse) was injected to the right thigh of each mouse. nTZDpa was dissolved in Kolliphor EL (Sigma-Aldrich, St Louis, Mo., USA)/ethanol 1:1 and then diluted 1:10 in saline to a final concentration of 50 mg/kg. At 24 h post-infection, groups of mice (n=10) were treated with 30 mg/kg gentamicin subcutaneously (s.c.) every 12 h, 25 mg/kg vancomycin i.p. every 24 h, 50 mg/kg nTZPpa i.p. every 24 h, or the combination of 50 mg/kg nTZDpa i.p. every 24 h and 30 mg/kg gentamicin s.c. every 12 h for 5 days. Control mice were injected with 250 μl of 10% Kolliphor EL/ethanol in saline i.p. every 24 h for 5 days. Mice were euthanized at 96 h post-infection. Blood was collected by cardiac puncture, and the infected thighs were aseptically excised, weighed, and stored at 4° C. until homogenization. To evaluate hepatic and renal toxicities, the levels of alanine aminotransferase and blood urea nitrogen were analyzed with commercially available kits, following the manufacturer's protocol (Pointe Scientific, Canton, Mich., USA). Thighs were homogenized in PBS, serially diluted with PBS, and spot-plated on TSA plates. […] Statistical significance among each group was analyzed by one-way ANOVA with post-hoc Tukey test using PASW Statistics 18 (SPSS Inc. Chicago, Ill., USA).

The test system of test [3] is MRSA MW2 persisters (stationary phase). The experiment in a line: Persister killing assay. It is filed as cell-based, S. aureus. On the procedure:
Persister killing assay. […] Persister cells of MRSA MW2 were prepared by growing cultures overnight to stationary phase at 37° C. at 200 rpm and washing 3 times with PBS. 1 mL of ˜2×10^8 CFU/mL MRSA persisters was added to 1 mL of PBS containing 2-fold of the desired concentration of antibiotics in a 96-well assay block (Corning Costar 3960). The assay block was incubated at 37° C., with shaking at 200 rpm. At specific times, […] were removed, washed once with PBS, serially diluted and spot-plated on TSA plates. Colonies were counted to enumerate the number of live cells after overnight incubation at 37° C. These experiments were conducted in biological triplicate.

In another test the test system is K. pneumoniae WGLW2. The experiment in a line: MIC assay. It is filed as cell-based, Klebsiella pneumoniae. Conditions: Klebsiella pneumoniae; K. pneumoniae WGLW2; read-out: Minimum inhibitory concentration.
Excerpt: as §1, §2

The subject of test [4] is exponential-phase MRSA MW2. The experiment in a line: Killing kinetics assay. Format: cell-based, S. aureus. The note with it: 16 μg/ml (4× MIC), ~10^7 CFU/mL. On the procedure:
Killing kinetics assay. An MRSA MW2 overnight culture was diluted 1:10,000 in 25 mL TSB (˜10^5 CFU/mL) in a 250 mL flask and incubated at 37° C. with shaking at 200 rpm for 4.5 h until it reached exponential-phase (˜2×10^7 CFU/mL). 1 mL of the exponential phase cell culture was mixed with 1 mL of pre-warmed TSB containing twice the desired concentrations of antibiotics in a 96-well assay block (Corning Costar 3960). The assay block was incubated at 37° C. with shaking at 200 rpm. At every hour, 400 μl aliquots were taken, washed once with phosphate buffered saline (PBS), serially diluted and spot-plated onto tryptic soy agar (TSA, BD) plates. After incubation at 37° C. for overnight, colonies were counted to enumerate the number of cells. These experiments were conducted in biological triplicate.

Test [5] deals with vancomycin-resistant Enterococcus faecium strains. The test is described as follows: MIC against vancomycin-resistant strains. Format: cell-based.
Excerpt: as §1, §2

Converted amounts (≈) assume the structure as drawn. A value given as a limit tells only on which side of the number the result lay.

For `O=C(O)c1c(Sc2ccccc2)c2cc(Cl)ccc2n1Cc1ccc(Cl)cc1` [nTZDpa], the MIC with S. aureus Newman is 4 µg/mL (≈ 9.34 µM); in the test with S. aureus ATCC 33591 it was 4 µg/mL (≈ 9.34 µM); in the test with S. aureus VRS1 it was 4 µg/mL (≈ 9.34 µM); with S. aureus NCTC 8325, 4 µg/mL (≈ 9.34 µM); in the test with K. pneumoniae WGLW2, greater than 64 µg/mL; in test [5] it was 4 µg/mL (≈ 9.34 µM). Besides, the “cell morphology by TEM” value in the test on MRSA MW2 [1] is “formation of mesosome-like structures in most cells, abnormal cell division, and cell lysis”. For the same compound, the “persister cells killed in thigh” value in the test with MRSA MW2 [2] (50 mg/kg nTZDpa i.p. with 30 mg/kg gentamicin s.c., p<0.001) was roughly 95%. Moreover, in the test with MRSA MW2 [2] (vancomycin 25 mg/kg i.p., gentamicin 30 mg/kg s.c., nTZDpa 50 mg/kg i.p.), the “MRSA CFUs / viability of persisters in thigh, single agent” value is “no effect on the viability of persisters”. Further, in [3] (8 μg/ml nTZDpa and 80 μg/ml gentamicin), the persister killing was 3 logs. Further, in test [3] (16 μg/ml nTZDpa and 10 μg/ml gentamicin), the “time to eradicate 100% of persisters” value was no more than 3 h. Moreover, the “killing of MRSA persisters in combination” value in test [3] (16 μg/ml nTZDpa combined with 10× MIC of other aminoglycosides) is given as “synergistic killing of MRSA persisters”. Moreover, the “reduction of MRSA persisters” value in test [3] (32 μg/mL) is on record as roughly 2 log. The “time to complete eradication of persisters” value in test [3] (64 μg/mL, ~5×10^7 CFU/mL) was no more than 2 h. Besides, the “time to complete eradication of exponential-phase MRSA MW2” value in test [4] was no more than 2 h.
